From ChEMBL document CHEMBL1138942, “Inactivation of GABA transaminase by 4-acryloylphenol” (Bioorg Med Chem Lett, 2006)

Columns and labels:
[1] = (§1) Inhibition of GABA-T; parameters: species or system Rattus norvegicus
Rattus norvegicus = species on record: Rattus norvegicus; assay: as §1

C=CC(=O)c1ccc(O)cc1
Ki [1]: 470 µM
Activity (Rattus norvegicus): Time-dependent effect
